Assay [1] addresses T1, *NSD2 PWWP1 ubiquitination by SCF^FBXO22 (Homo sapiens, UniProt O96028+Q8NEZ5).
T1 construct: fluorescently labeled NSD2-PWWP1 (*NSD2-PWWP1); the FIST domain of FBXO22 rather than full-length FBXO22 that is used in the ubiquitination; 6xHis (N, cleaved yes); GST (cleaved yes); made in house; host or cells: SKP1-FBXO22: Trichoplusia ni insect cells; NSD2 PWWP1 and NEDD8: E. coli BL21(DE3)-CodonPlus RIL
Description: Ubiquitination assay using purified components. The format is biochemical. The note with it: compound at 0.5 µM, fluorescent SDS-PAGE. The method, then:
Ubiquitination assays were performed by mixing 2 separate solutions. First, SKP1-FBXO22, fluorescently labeled NSD2-PWWP1 (*NSD2-PWWP1), and compounds, unless otherwise indicated, were pre-incubated for 15 min on ice. Second, UBA1, UBE2R2, UBE2D2 or UBE2L3 and ARIH1, NEDD8 ~ CUL1-RBX1, MgATP, and reaction buffer (20 mM HEPES pH 8, 200 mM NaCl, 0.5 mg/mL bovine serum albumin (BSA)) were combined on ice to generate a master mix. A standard volume of master mix was added to each reaction tube, and Ub was added to initiate the ubiquitination reaction containing 100µM Ub, 1µM SKP1-FBXO22, 0.5µM *NSD2 PWWP1, 0.5µM compound, 0.1µM UBA1, 1µM UBE2R2, 1µM UBE2D2 or 1µM UBE2L3, and 1µM ARIH1, 1µM NEDD8~CUL1-RBX1, and 5mM MgATP in reaction buffer. Ubiquitination assays comparing *NSD2 PWWP1 mutants were performed similarly, except that SKP1-FBXO22, *NSD2 PWWP1 mutants, and compounds were not incubated separately prior to the start of the reaction. The reactions proceeded at room temperature for 15 min until they were quenched by adding SDS Loading Buffer. The ubiquitinated *NSD2 PWWP1 was visualized by subjecting the reactions to SDS-PAGE and imaging using the Amersham Typhoon.

For assay [2], the system named is NSD2 and other known FBXO22 substrates. The note with it: prior work; cited from earlier work.
In assay [3] the target is T2, NSD2 (long and short forms) (Homo sapiens, UniProt O96028).
T2 sequence (O96028 211-350 limits assumed): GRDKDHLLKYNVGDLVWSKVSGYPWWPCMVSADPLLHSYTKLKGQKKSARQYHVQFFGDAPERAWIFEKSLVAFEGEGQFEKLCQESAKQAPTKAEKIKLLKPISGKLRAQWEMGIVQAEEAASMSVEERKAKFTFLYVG
Nature of the assay: Western blot of NSD2 in HEK293T cells. The format is cell-based. The note with it: 10 µM, 6 hrs, vs DMSO. The method, then: (§1) HEK293T and U2OS were obtained from ATCC and cultured in high-glucose-containing Dulbecco’s Modified Eagle’s Medium (DMEM; Gibco; cat. #11995) supplemented with 10% fetal bovine serum (VWR) and 1% penicillin/streptomycin (Gibco). Cells were treated with either UNC10415667, UNC12149, UNC12567, hemin (Sigma; cat. #H9039), or DMSO control for the indicated times and analyzed by western blot using standard procedures. Briefly, cells were lysed on ice for 15 min in NETN lysis buffer (20 mM Tris pH 8.0, 100 mM NaCl, 0.5 mM EDTA, 0.5% NP40) supplemented with 10 µg/mL aprotinin, 10 µg/mL leupeptin, 10 µg/mL pepstatin A, 1 mM sodium orthovanadate, 1 mM sodium fluoride, and 1 mM AEBSF (4-[two aminoethyl] benzenesulfonyl fluoride). Cell lysates were centrifuged at 20,000×g in a benchtop microcentrifuge at 4 °C for 10 min. Protein concentration was determined by Bradford assay (Bio-Rad; cat. #5000006). Protein concentration was normalized using Laemmli buffer. Samples were heated for 5 min at 95°C in a dry water-bath. Samples were separated on TGX stain free gels (Bio-Rad) transferred to nitrocellulose membrane and blocked in 5% non-fat dry milk (Biorad; cat. #1706404) diluted in 1x TBS-T (137 mM NaCl, 2.7 mM KCl, 25 mM Tris pH 7.6, 1% Tween-20). Primary antibody incubations (Anti-NSD2 (Abcam; Cat# ab75359; Lot# 1093214-1; 1:1000 dilution), Anti-BACH1 (Fortis Life Sciences; Cat# A303-805A; Lot# 1; 1:1000 dilution), and Anti-GAPDH (Santa Cruz Biotechnology; Cat# sc-47724; Lot# C1023; 1:1000 dilution)) were performed overnight at 4 °C. Secondary antibodies (Peroxidase AffiniPure Goat Anti-Rabbit IgG (H + L) (Jackson Immuno; Cat# 111-035-003; 1:5000 dilution) and Peroxidase AffiniPure Goat Anti-Mouse IgG (H + L) (Jackson Immuno; Cat# 115-035-003; 1:5000 dilution)) were incubated for 1 h at room temperature. Blots were developed by chemiluminescence using Pierce ECL (Thermo Fisher Scientific; cat. #32106).
(Immunoblotting shows a protein as a band on a membrane.)

The test system of another assay is BACH1. Nature of the assay: Western blot of BACH1 in HEK293T cells. Format: cell-based, human. The method, then: as §1
Assay [4] concerns FBXO22-NSD2 PWWP1 ternary complex. Nature of the assay: Size-exclusion chromatography to monitor ternary complex formation. The format is binding, human. The method, then:
Formation of the SCF^FBXO22-UNC10088-NSD2 PWWP1 and SCF^FBXO22-UNC10415667-NSD2 PWWP1 ternary complexes was performed by incubating SKP1-FBXO22, CUL1-RBX1, NSD2 PWWP1, and UNC10088 or UNC10415667 at a 1:1:1:1 molar ratio for 4 h on ice. The SCF^FBXO22-UNC10088-NSD2 PWWP1-BACH1 BTB ternary complex was formed by incubating SKP1-FBXO22, CUL1-RBX1, NSD2 PWWP1, UNC10088, and BACH1 BTB at a 1:1:1:1:1.5 molar ratio for 1 h on ice. The incubated sample was loaded onto a Superdex 200 Increase SD200 column (Cytiva), equilibrated with 20 mM HEPES pH 8, 200 mM NaCl, 1 mM DTT, for size-exclusion chromatography, and fractions containing all subunits of the SCF^FBXO22-Degrader-NSD2 PWWP1 complex were pooled and concentrated. The SCF^FBXO22-UNC10088-NSD2 PWWP1, SCF^FBXO22-UNC10415667-NSD2 PWWP1, and SCF^FBXO22-UNC10088-NSD2 PWWP1-BACH1 BTB complexes were concentrated to 33 µM, 10.9 µM, and 4.1 µM, respectively, and flash frozen. […] In contrast, only the PWWP1 and BTB domains of NSD2 and BACH1, respectively, were used.
FBXO22 WT and variants were incubated on ice with NSD2 PWWP1 and either UNC10088 or UNC10415667 at 5 µM. After 1 h, the samples were centrifuged at 16,060 x g for 10 min at 4 °C. Each sample was examined for C326- and compound-dependent complex formation by comparing the SEC chromatograms and Coomassie-stained SDS-PAGE gels. […] These experiments were performed using a Superdex 200 Increase SD200 column (Cytiva) and 20 mM HEPES pH 8, 200 mM NaCl, 1 mM DTT.
(In general: Size exclusion chromatography separates by hydrodynamic size, large species first.)

Assay [5] addresses T3, NSD2 (U2OS NSD2-HiBiT cells) (Homo sapiens, UniProt O96028).
T3 construct: RNPs were introduced into U2OS cells by electroporation; endogenous in cells; host or cells: U2OS NSD2-HiBiT clone P112 (CRISPR knock-in)
T3 sequence (O96028 1-1365): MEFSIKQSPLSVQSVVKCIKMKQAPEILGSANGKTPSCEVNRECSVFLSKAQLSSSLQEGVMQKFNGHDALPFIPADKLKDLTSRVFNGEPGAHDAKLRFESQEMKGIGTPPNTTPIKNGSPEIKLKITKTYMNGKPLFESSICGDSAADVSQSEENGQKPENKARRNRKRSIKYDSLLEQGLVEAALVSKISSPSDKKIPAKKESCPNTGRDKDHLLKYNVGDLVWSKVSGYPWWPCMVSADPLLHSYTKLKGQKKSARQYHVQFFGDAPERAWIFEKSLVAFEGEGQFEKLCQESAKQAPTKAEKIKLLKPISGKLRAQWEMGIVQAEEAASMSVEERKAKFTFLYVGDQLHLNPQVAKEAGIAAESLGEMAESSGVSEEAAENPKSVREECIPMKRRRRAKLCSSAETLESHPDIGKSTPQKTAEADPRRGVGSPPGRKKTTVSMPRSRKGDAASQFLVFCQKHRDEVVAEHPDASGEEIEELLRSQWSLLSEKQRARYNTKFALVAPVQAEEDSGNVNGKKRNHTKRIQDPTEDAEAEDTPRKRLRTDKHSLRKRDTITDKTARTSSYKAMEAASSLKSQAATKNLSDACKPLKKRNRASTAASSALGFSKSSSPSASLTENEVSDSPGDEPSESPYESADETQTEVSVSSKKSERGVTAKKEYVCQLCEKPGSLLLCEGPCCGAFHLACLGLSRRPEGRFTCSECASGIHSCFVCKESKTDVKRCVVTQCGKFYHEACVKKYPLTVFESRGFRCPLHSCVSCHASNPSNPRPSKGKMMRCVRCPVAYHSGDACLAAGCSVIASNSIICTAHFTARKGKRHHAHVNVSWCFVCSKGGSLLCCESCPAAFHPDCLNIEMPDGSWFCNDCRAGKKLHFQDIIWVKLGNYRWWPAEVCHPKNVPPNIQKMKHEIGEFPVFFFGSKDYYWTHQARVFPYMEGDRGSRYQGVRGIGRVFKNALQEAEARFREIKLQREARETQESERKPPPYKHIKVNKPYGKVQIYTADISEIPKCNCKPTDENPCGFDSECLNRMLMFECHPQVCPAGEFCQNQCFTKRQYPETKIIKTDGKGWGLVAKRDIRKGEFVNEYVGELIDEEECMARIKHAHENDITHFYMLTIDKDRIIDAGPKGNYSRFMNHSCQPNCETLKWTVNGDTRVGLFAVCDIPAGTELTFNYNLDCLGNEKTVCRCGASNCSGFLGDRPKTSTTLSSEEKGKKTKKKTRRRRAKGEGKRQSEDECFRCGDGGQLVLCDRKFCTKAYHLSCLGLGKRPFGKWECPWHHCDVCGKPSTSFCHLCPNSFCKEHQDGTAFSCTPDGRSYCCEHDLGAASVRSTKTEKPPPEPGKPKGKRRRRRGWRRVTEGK
Nature of the assay: NSD2 HiBiT degradation assay. Format: cell-based. The note with it: U2OS NSD2-HiBit cells, 1 µM, 6 h. From the text: The NSD2 genomic sequence was obtained from the UCSC genome browser and used to design sgRNAs to introduce HiBiT tags at either the 5’ or 3’ ends of the gene. sgRNA were assembled into RNPs using TrueCut Cas9 Protein v2 (Invitrogen, Cat#A36497), an sgRNA crRNA:tracrRNA duplex (below; IDT) and ssODN (below; IDT). RNPs were introduced into U2OS cells by electroporation using a Neon XT electroporation system (1750 V, 10 ms, 3 pulses) in R-buffer, using Thermo Fisher Neon transfection kit (Cat# MPK1025K) and according to the manufacturer's protocol. After plating for recovery for four days, single cell clones limited dilution cloning. Single cell clones that grew out were identified as containing integrated HiBiT tags on NSD2 by performing HiBiT assays using HiBiT lytic assay (Promega: N3040) and read on a plate reader. Clones were further confirmed by PCR analysis.
To test compounds for NSD2 degradation, a compound plate was prepared by diluting compounds in DMSO into cell media in a 384-deep-well plate (Revvity). Then, 6 µL of the diluted compounds were transferred into the well of the 384-well assay plate (Corning). 24 µL of the NSD2 HiBiT U2OS P112 cells or parental U2OS cells (3000 cells/well) were added to each well to make a final volume of 30 µL with a 0.1% final DMSO concentration. For multiple time points, multiple assay plates were made and incubated in the incubator at 37 °C in 5% CO2 for 3/6/12/24/48 hrs. 10 min before the reading, the assay plate and the Nano-Glo HiBiT Lytic Detection System (Promega) were brought to room temperature. The HiBiT lytic reagent master mix was prepared according to the product instructions and added to the assay plate. The plate was then incubated on an orbital shaker for 5 min at room temperature, equilibrated for 10 min, and then read using the GloMax luminometer (Promega) for luminescence detection. Compound treatment was normalized to the DMSO control with the background subtraction using the parental U2OS cell line as the background control, plated alongside the HiBiT U2OS P112 cells. The data and graphs were then analyzed and generated using GraphPad Prism (v 10.4.1). DC50 and Dmax were calculated by fitting the data to a non-linear regression curve.

T1 sequence (Q8NEZ5 whole entry, one chain of several, the tested form may be a part): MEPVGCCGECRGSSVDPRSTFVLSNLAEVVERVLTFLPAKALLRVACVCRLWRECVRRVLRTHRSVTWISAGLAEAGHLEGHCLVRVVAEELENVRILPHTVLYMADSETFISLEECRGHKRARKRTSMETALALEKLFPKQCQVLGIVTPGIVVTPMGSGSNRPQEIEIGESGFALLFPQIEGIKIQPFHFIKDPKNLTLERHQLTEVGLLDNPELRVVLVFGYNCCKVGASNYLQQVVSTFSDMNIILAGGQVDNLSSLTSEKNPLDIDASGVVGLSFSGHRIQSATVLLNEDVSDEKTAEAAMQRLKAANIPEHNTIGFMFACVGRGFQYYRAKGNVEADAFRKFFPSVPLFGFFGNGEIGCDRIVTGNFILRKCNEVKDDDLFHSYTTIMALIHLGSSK

Regarding `NCCCCCC(=O)N1CCc2cc(NC(=O)c3ccc(CN(C(=O)c4ccc5c(c4)OCC(=O)N5)C4CC4)cc3)ccc2C1` [UNC8732], the “SCF^FBXO22-dependent ubiquitination of *NSD2 PWWP1” value in assay [1] is reported as “no effect”. Also, the “selectivity of degradation in global proteomics” value in assay [2] is reported as “specifically degrades NSD2”.

With `CC(C)N(Cc1ccc(C(=O)Nc2ccc3c(c2)CCN(C(=O)c2ccc(C=O)cc2)C3)cc1)C(=O)c1ccc2c(c1)OCC(=O)N2` [UNC12567], the “NSD2 levels by immunoblot” value in assay [3] is recorded as “unchanged”. The “BACH1 levels by immunoblot” value in the assay with BACH1 (10 µM, 6 hrs) is “unchanged”. Besides, the “ternary complex formation between FBXO22 and NSD2 PWWP1 by SEC” value in assay [4] is “did not support ternary complex formation”.

As for `O=Cc1ccc(CC(=O)N2CCc3cc(NC(=O)c4ccc(CN(C(=O)c5ccc6c(c5)OCC(=O)N6)C5CC5)cc4)ccc3C2)cc1` [UNC10415668], in assay [5], the “reduction of NSD2 levels” value is listed as “more modest effect”. In addition, the “SCF^FBXO22-dependent ubiquitination of *NSD2 PWWP1” value in assay [1] was “able to induce polyubiquitination”.

In the case of Hemin [reference compound], the “BACH1 degradation by immunoblot” value in the assay with BACH1 (20 µM Hemin) was “degradation was promoted”.

(Values after PMC13316043, “Structural basis of NSD2 degradation via targeted recruitment of SCF-FBXO22” (Nature Communications, 2026).)
